In US20100330093A1, “TREATMENT OF MELANOMA WITH ALPHA THYMOSIN PEPTIDES IN COMBINATION WITH ANTIBODIES AGAINST CYTOTOXIC T LYMPHOCYTE-ASSOCIATED ANTIGEN 4 (CTLA4)” (SciClone Pharmaceuticals, Inc., priority 2007, published 2010):
No end group written: not given here.

What was measured:
[1] = system: murine B16 melanoma cells; test: Subcutaneous murine B16 melanoma tumor model in C57BL/6 mice (tumor volume, tumor weight); format: in vivo; conditions: for percent inhibition of tumor weight (PITW): Day 16 necropsy, DTIC 5 mg/kg s.c. daily, TA-1 6 mg/kg s.c. daily, 9H10 i.p. Day 3 (100 μg), Day 6 (50 μg), Day 9 (50 μg), vs vehicle
Description: (§1) C57BL/6 mice were implanted subcutaneously with murine B16 melanoma cells (Cell Culture Center, Institute of Basic Medical Sciences, Peking Union Medical College and Chinese Academy of Medical Sciences PUMC&CAMS, Beijing, P.R.China), followed by treatment with TA-1 or DTIC alone or in combination for 14 consecutive days. The day of tumor implantation was defined as Day 0. Meanwhile 9H10 was given in two groups via i.p. on Day 3, 6 and 9. TA-1 and DTIC were administered daily by s.c. injection. In total, 5 groups of mice (n=10) were used: Group 1: vehicle; Group 2: DTIC 5 mg/kg; Group 3: TA-1 6 mg/kg; Group 4: DTIC 5 mg/kg+9H10 (Day 3 (100 μg), Day 6 (50 μg), Day 9 (50 μg)); Group 5: DTIC 5 mg/kg+TA-1 6 mg/kg+9H10 (Day 3 (100 μg), Day 6 (50 μg), Day 9 (50 μg)) (Table 1). The animals were six weeks old and weighed between 18 and 22 grams at the start of the study. Tumor volume and body weight were measured every three days, and tumor weights were measured on Day 16 at the end of the study.
Phosphate buffered saline (PBS) was used as the negative control article (vehicle). TA-1 solution was stored at 2-8° C. and used up in one week. DTIC(SIGMA) was initially dissolved in 0.01 N HCl and then diluted with PBS to 1 mg/mL. DTIC dosing solution was kept on ice, protected from light, and used within one day. Final dosing solutions were prepared on the day of use by diluting the stock solution to 1× with water. The antibody reagent 9H10 (EBIOSCIENCE) was a ready-to-use agent at a concentration of 1 mg/mL.
Mortality and moribundity were checked twice daily, the body weights were recorded once every 3 days, and tumors were measured using a caliper once every 3 days. […]
Based on the tumor size, the tumor volume (TV) was calculated with the formula: [TV=(Length×Width×Width)/2]. And the percent inhibition (PI) of TV (PITV) was calculated according to the equation below: […]
The anti-tumor effect of the test article was further evaluated with tumor weight (TW) measured on day of necropsy (Day 16). The PI of TW was calculated using the equation below: […]

[2] = Body weight of B16 tumor-bearing C57BL/6 mice during treatment; format: in vivo; conditions: TA-1 6 mg/kg s.c. daily, alone or in combination, throughout the course of the study
Description: as §1
Mortality and moribundity were checked twice daily, the body weights were recorded once every 3 days, and tumors were measured using a caliper once every 3 days. At the end of the study (Day 16), the animals were euthanized by CO2 asphyxiation, and the tumors were excised and weighed.

Compound: CN(C)/N=N/c1[nH]cnc1C(N)=O [DTIC, dacarbazine, reference compound]
- percent inhibition of tumor weight (PITW) [1]: 28.41%

Compound: thymosin alpha 1 (Ac-SDAAVDTSSEITTKDLKEKKEVVEEAEN; ends and bridges not checked; UniProt P06454 2-29, looked up) [TA-1, 28 amino acid peptide with a molecular weight of 3108, initially isolated from Thymosin Fraction 5]
- loss of body weight [2]: did not cause any loss of body weight
- mice with palpable tumors ([1]; Day 9, n=10 per group): most mice
- percent inhibition of tumor weight (PITW) [1]: 43.35%
